The values below come from patent US20240360175A1, “PEPTIDE DERIVATIVES AND RELATED USES AS OREXIN AGONISTS” (Centessa Pharmaceuticals (UK) Limited, priority 2021, published 2024).

Experiment [1] concerns the target T1, human orexin type 2 receptor (hOX2R) (Homo sapiens, UniProt O43614).
T1 construct: expressed in transfected cells
T1 sequence (O43614 1-444): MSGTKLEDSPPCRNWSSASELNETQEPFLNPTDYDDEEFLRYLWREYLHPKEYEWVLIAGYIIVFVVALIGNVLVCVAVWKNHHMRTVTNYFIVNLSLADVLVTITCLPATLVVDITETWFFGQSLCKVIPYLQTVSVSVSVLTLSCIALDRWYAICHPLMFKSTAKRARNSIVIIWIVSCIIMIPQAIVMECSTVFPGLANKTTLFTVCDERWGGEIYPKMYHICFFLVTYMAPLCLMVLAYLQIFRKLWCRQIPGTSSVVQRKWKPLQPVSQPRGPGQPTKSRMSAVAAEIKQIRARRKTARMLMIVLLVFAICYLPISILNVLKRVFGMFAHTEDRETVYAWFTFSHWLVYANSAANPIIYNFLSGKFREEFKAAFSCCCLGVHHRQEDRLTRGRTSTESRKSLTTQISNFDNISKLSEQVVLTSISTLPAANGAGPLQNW
Description: Measurement of orexin type 2 receptor agonist activity (FLIPR TETRA intracellular Ca2+ fluorescence). In kind it is cell-based. As to the method: (§1) Stable cell line generation. Obtainment of cells stably expressing either human orexin type 2 or human orexin type 1 receptor: to obtain a stable cell line the Orexin receptor cDNA was inserted into pcDNA3.1(+) plasmid vector and clones identified by G418 drug resistance selection. […] A single clone for OX2R—CHO and OX1R—CHO were grown in bulk and frozen to generate a cell bank for routine screening.
(§2) Measurement of orexin type 2 receptor agonist activity. Chinese hamster ovary (CHO) cells expressing human orexin type 2 receptor (hOX2R) seeded in each well of 384 well black clear bottom plates (BD Flacon) at 10,000 cells per well and cultured for 24 h in an Ham's F12 (Gibco) medium containing 10% fetal calf serum (Sigma Aldrich) under the conditions of 37° C., 5% CO2. After removal of the medium, 50 μL of assay buffer 1 (0.1% bovine serum albumin (Sigma Aldrich), 20 mM HEPES (Molecular Dimensions), […] probenecid (Sigma Aldrich), 1× Calcium 5 dye (Molecular Devices) in Hank's balanced salt solution (Invitrogen)) was added, and the cells were incubated for 60 min under the conditions of 37° C., 5% CO2. A test peptide was dissolved in dimethyl sulfoxide (Sigma Aldrich) to 1 mM, and then diluted with assay buffer 2 (20 mM HEPES, Hank's balanced salt solution, 0.1% bovine serum albumin). For the reaction, a test peptide solution (10 μl) was added using Fluorescent Imaging Plate Reader TETRA (FLIPR TETRA: manufactured by Molecular Devices), a fluorescence value (excitation wavelength 488 nm, measurement wavelength 570 nm) of each well was measured every one second for 2 min, and the agonist activity was determined using the area of the fluorescence value as an indicator of intracellular Ca^2+ concentration. The agonist activity of the test peptide was calculated assuming that the fluorescence value of the well added with only the dilution buffer was 0% and the fluorescence value of the well added with 10 nM human orexin A (Tocris) buffer was 100%. As used herein, Emax indicates the value at 1 μM concentration when orexin A is converted to a full agonist (maximum value of agonist activity: 100%).

Experiment [2] concerns the target T2, human orexin type 1 receptor (hOX1R) (Homo sapiens, UniProt O43613).
T2 construct: expressed in transfected cells
T2 sequence (O43613 1-425): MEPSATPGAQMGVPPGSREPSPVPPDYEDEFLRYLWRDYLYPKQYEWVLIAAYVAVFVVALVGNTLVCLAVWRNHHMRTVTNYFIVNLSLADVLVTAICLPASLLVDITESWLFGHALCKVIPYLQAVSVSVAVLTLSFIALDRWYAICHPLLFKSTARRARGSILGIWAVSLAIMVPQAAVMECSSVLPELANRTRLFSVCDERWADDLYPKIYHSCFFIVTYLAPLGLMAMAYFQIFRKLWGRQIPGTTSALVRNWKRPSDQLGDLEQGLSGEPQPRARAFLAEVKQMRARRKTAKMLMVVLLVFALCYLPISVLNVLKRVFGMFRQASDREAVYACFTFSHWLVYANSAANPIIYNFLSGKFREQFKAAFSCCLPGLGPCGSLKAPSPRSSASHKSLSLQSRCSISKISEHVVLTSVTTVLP
Description: Measurement of orexin type 1 receptor agonist activity (FLIPR TETRA intracellular Ca2+ fluorescence). In kind it is cell-based. The protocol:
as §1
as §2, with “type 1” for “type 2”, “receptor (hOX1R) were” for “receptor (hOX2R)”

The mark [3] stands for this setting: CHO cells expressing hOX2R, agonist activity, Ca2+ fluorescence, read-out: hOX2 pEC50 (converted).
Where [4] appears, read: CHO cells expressing hOX1R, agonist activity, Ca2+ fluorescence, read-out: hOX1 pEC50 (converted).

SMILES strings stand for the structures. Read-outs that look alike come from different tables or passages of the source. Numbered stars: 1 amine (or outer) side, 2 acyl side, 3 side chain; on linkers, the order of the positions; unused ones are H or OH. Square brackets hold non-standard residues; d marks the D form. Peptide text beside a SMILES is read from it. * marks the point of attachment. Malonyl(2,2-Me2,histaminyl) = CC(C)(C(=O)NCCc1cnc[nH]1)C(=O)*; hArg(Et2) = CCN=C(NCC)NCCCC[C@H](N)C(=O)O; X2 = O=C([C@@H](N[*:1])c1cccc(O)c1)[*:2]; X4 = CN(C)CCOCCOCCOCCOCCOCCOCCC(=O)*; Gly(NCH2CH2Ph) = O=C(O)CNCCc1ccccc1; PEG6 = NCCOCCOCCOCCOCCOCCOCCC(=O)O; Hyp = O=C(O)[C@@H]1C[C@@H](O)CN1; Hpg = N[C@H](C(=O)O)c1ccc(O)cc1; NMeN = CN[C@@H](CC(N)=O)C(=O)O; X5 = COCCOCCOCCOCCOCCOCCC(=O)*; Aoc(2) = CCCCCC[C@H](N)C(=O)O; NMeL = CN[C@@H](CC(C)C)C(=O)O; Ahp(2) = CCCCC[C@H](N)C(=O)O; Phg = N[C@H](C(=O)O)c1ccccc1 Some results are limits rather than exact numbers.

Take `CCCCCC[C@H](NC(=O)[C@@H](NC(=O)[C@H](CC(C)C)NC(=O)[C@@H](NC(=O)CNC(=O)[C@@H](NC(=O)[C@H](C)NC(=O)[C@H](CCC(N)=O)NC(=O)[C@H](CC(N)=O)NC(=O)CN(CCc1ccccc1)C(=O)[C@@H](N)CCCCN/C(=N/CC)NCC)c1ccc(O)cc1)[C@@H](C)CC)[C@@H](C)O)C(N)=O` [Peptide 23] (H-[hArg(Et2)][Gly(NCH2CH2Ph)]NQA[Hpg]GILT[Aoc(2)]-NH2): the results for the EC50 in experiment [1] (setting [3]) and in experiment [2] (setting [4]) were under 0.1 nM and over 10 nM, respectively.

Turning to `CCCCCC[C@H](NC(=O)[C@@H](NC(=O)[C@H](CC(C)C)NC(=O)[C@@H](NC(=O)CNC(=O)[C@@H](NC(=O)[C@H](C)NC(=O)[C@@H]1C[C@@H](O)CN1C(=O)[C@H](CC(N)=O)NC(=O)CN(CCc1ccccc1)C(=O)[C@H](CCCNC(=N)N)NC(=O)CCOCCOCCOCCOCCOCCOCCN(C)C)c1ccccc1)[C@@H](C)CC)[C@@H](C)O)C(N)=O` [Peptide 2] (X4-R[Gly(NCH2CH2Ph)]N[Hyp]A[Phg]GILT[Aoc(2)]-NH2), the EC50 in experiment [1] (setting [3]) was under 0.1 nM; in experiment [2] (setting [4]) it was 1 to 10 nM.

For `CCCCC[C@H](NC(=O)[C@@H](NC(=O)[C@H](CC(C)C)NC(=O)[C@@H](NC(=O)CNC(=O)[C@@H](NC(=O)[C@H](C)NC(=O)[C@@H]1C[C@@H](O)CN1C(=O)[C@H](CC(N)=O)NC(=O)CN(CCc1ccccc1)C(=O)[C@H](CCCNC(=N)N)NC(=O)CCOCCOCCOCCOCCOCCOCCN)c1ccccc1)[C@@H](C)CC)[C@@H](C)O)C(N)=O` [Peptide 27] (H-[PEG6]R[Gly(NCH2CH2Ph)]N[Hyp]A[Phg]GILT[Ahp(2)]-NH2), the EC50 in experiment [1] (setting [3]) was under 0.1 nM; in experiment [2] (setting [4]), over 10 nM.

As for `CCCCCC[C@H](NC(=O)[C@@H](NC(=O)[C@H](CC(C)C)NC(=O)[C@@H](NC(=O)CNC(=O)[C@@H](NC(=O)[C@H](C)NC(=O)[C@@H]1C[C@@H](O)CN1C(=O)[C@H](CC(N)=O)NC(=O)CN(CCc1ccccc1)C(=O)[C@H](CCCCN/C(=N/CC)NCC)NC(=O)C(C)(C)C(=O)NCCc1cnc[nH]1)c1ccccc1)[C@@H](C)CC)[C@@H](C)O)C(N)=O` [Peptide 15] ({Malonyl(2,2-Me2,histaminyl)}-[hArg(Et2)][Gly(NCH2CH2Ph)]N[Hyp]A[Phg]GILT[Aoc(2)]-NH2), the EC50 in experiment [1] (setting [3]) is under 0.1 nM; in experiment [2] (setting [4]), over 10 nM.

Regarding `CCCCCC[C@H](NC(=O)[C@@H](NC(=O)[C@H](CC(C)C)NC(=O)[C@@H](NC(=O)CNC(=O)[C@@H](NC(=O)[C@H](C)NC(=O)[C@H](Cc1c[nH]cn1)NC(=O)[C@H](CC(N)=O)NC(=O)CN(CCc1ccccc1)C(=O)[C@@H](N)CCCCN/C(=N/CC)NCC)c1cccc(O)c1)[C@@H](C)CC)[C@@H](C)O)C(N)=O` [Peptide 17] (H-[hArg(Et2)][Gly(NCH2CH2Ph)]NHA[X2]GILT[Aoc(2)]-NH2), the EC50 in experiment [1] (setting [3]) is under 0.1 nM; in experiment [2] (setting [4]) it was over 10 nM.

Consider `CCCCCC[C@H](NC(=O)[C@@H](NC(=O)[C@H](CC(C)C)NC(=O)[C@@H](NC(=O)CNC(=O)[C@@H](NC(=O)[C@H](C)NC(=O)[C@@H]1C[C@@H](O)CN1C(=O)[C@H](CC(N)=O)NC(=O)CN(CCc1ccccc1)C(=O)[C@@H](N)CCCCN/C(=N/CC)NCC)c1ccccc1)[C@@H](C)CC)[C@@H](C)O)C(N)=O` [Peptide 4] (H-[hArg(Et2)][Gly(NCH2CH2Ph)]N[Hyp]A[Phg]GILT[Aoc(2)]-NH2), for which the EC50 in experiment [1] (setting [3]) was under 0.1 nM; in experiment [2] (setting [4]), over 10 nM.

Turning to `CCCCCC[C@H](NC(=O)[C@@H](NC(=O)[C@H](CC(C)C)NC(=O)[C@@H](NC(=O)CNC(=O)[C@@H](NC(=O)[C@H](C)NC(=O)[C@H](Cc1c[nH]cn1)NC(=O)[C@H](CC(N)=O)NC(=O)CN(CCc1ccccc1)C(=O)[C@H](CCCCNC(=NCC)NCC)NC(=O)[C@H](CCC(N)=O)NC(=O)C(C)(C)C(=O)NCCc1cnc[nH]1)c1ccccc1)[C@@H](C)CC)[C@@H](C)O)C(N)=O` [Peptide 26] ({Malonyl(2,2-Me2,histaminyl)}-Q[hArg(Et2)][Gly(NCH2CH2Ph)]NHA[Phg]GILT[Aoc(2)]-NH2), the EC50 in experiment [1] is under 0.1 nM; in experiment [2], over 10 nM.

Turning to `CCCCCC[C@H](NC(=O)[C@@H](NC(=O)[C@H](CC(C)C)NC(=O)[C@@H](NC(=O)CNC(=O)[C@@H](NC(=O)[C@H](C)NC(=O)[C@H](Cc1c[nH]cn1)NC(=O)[C@H](CC(N)=O)NC(=O)CN(CCc1ccccc1)C(=O)[C@@H](N)CCCCN/C(=N/CC)NCC)c1ccc(O)cc1)[C@@H](C)CC)[C@@H](C)O)C(N)=O` [Peptide 20] (H-[hArg(Et2)][Gly(NCH2CH2Ph)]NHA[Hpg]GILT[Aoc(2)]-NH2), the EC50 in experiment [1] (setting [3]) is under 0.1 nM; in experiment [2] (setting [4]), over 10 nM.

On to `CCCCCC[C@H](NC(=O)[C@@H](NC(=O)[C@H](CC(C)C)N(C)C(=O)[C@@H](NC(=O)CNC(=O)[C@@H](NC(=O)[C@H](C)NC(=O)[C@@H]1C[C@@H](O)CN1C(=O)[C@H](CC(N)=O)NC(=O)CN(CCc1ccccc1)C(=O)[C@H](CCCNC(=N)N)NC(=O)CCOCCOCCOCCOCCOCCOCCN)c1ccccc1)[C@@H](C)CC)[C@@H](C)O)C(N)=O` [Peptide 29] (H-[PEG6]R[Gly(NCH2CH2Ph)]N[Hyp]A[Phg]GI[NMeL]T[Aoc(2)]-NH2), for which the EC50 in experiment [1] (setting [3]) is under 0.1 nM; in experiment [2] (setting [4]) it was over 10 nM.

Consider `CCCCC[C@H](NC(=O)[C@@H](NC(=O)[C@H](CC(C)C)NC(=O)[C@@H](NC(=O)CNC(=O)[C@@H](NC(=O)[C@H](C)NC(=O)[C@@H]1C[C@@H](O)CN1C(=O)[C@H](CC(N)=O)N(C)C(=O)CN(CCc1ccccc1)C(=O)[C@H](CCCNC(=N)N)NC(=O)CCOCCOCCOCCOCCOCCOCCN)c1ccccc1)[C@@H](C)CC)[C@@H](C)O)C(N)=O` [Peptide 30] (H-[PEG6]R[Gly(NCH2CH2Ph)][NMeN][Hyp]A[Phg]GILT[Ahp(2)]-NH2), for which the figures for the EC50 in experiment [1] (setting [3]) and in experiment [2] (setting [4]) were under 0.1 nM and over 10 nM, respectively.

Turning to `CCCCCC[C@H](NC(=O)[C@@H](NC(=O)[C@H](CC(C)C)NC(=O)[C@@H](NC(=O)CNC(=O)[C@@H](NC(=O)[C@H](C)NC(=O)[C@@H]1C[C@@H](O)CN1C(=O)[C@H](CC(N)=O)NC(=O)CN(CCc1ccccc1)C(=O)[C@H](CCCNC(=N)N)NC(=O)CCOCCOCCOCCOCCOCCOC)c1ccccc1)[C@@H](C)CC)[C@@H](C)O)C(N)=O` [Peptide 22] (X5-R[Gly(NCH2CH2Ph)]N[Hyp]A[Phg]GILT[Aoc(2)]-NH2), the EC50 is under 0.1 nM in experiment [1] (setting [3]) and over 10 nM in experiment [2] (setting [4]).
